Legend:
[1] = biological target: T1, endogenous Factor XIII in plasma (Plasma FXIIIa) (Homo sapiens, UniProt P00488); test: Inactivation of endogenous Factor XIII in plasma; assay type: biochemical; conditions: citrated plasma, thrombin-activated, 5 min at 37° C.
T1 construct: from tissue; host or cells: citrated plasma (desensitized by heating)
T1 sequence (P00488 39-732 limits assumed): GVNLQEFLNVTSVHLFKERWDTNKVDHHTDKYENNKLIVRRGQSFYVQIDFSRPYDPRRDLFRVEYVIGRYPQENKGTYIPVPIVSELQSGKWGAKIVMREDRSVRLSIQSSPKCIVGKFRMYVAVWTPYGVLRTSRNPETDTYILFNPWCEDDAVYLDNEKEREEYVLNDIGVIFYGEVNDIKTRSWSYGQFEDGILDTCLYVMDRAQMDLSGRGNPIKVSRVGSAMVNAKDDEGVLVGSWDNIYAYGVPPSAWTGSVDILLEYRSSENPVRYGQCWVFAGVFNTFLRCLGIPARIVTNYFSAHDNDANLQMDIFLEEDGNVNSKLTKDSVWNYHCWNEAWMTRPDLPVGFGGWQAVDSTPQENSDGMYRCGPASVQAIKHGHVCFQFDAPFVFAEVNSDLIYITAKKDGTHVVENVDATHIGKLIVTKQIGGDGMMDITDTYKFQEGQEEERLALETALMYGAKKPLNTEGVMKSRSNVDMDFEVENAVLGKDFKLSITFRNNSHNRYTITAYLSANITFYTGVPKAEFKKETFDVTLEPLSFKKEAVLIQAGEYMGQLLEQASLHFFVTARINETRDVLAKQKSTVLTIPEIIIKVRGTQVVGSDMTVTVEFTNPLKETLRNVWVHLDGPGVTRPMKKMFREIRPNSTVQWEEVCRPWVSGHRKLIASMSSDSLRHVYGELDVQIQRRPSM
Protocol: Citrated plasma (0.235 mL) was “desensitized” by heating with ethylene glycol monomethyl ether (0.235 mL, 20% solution in water) in a glass test tube at 56° C. for 4 min., as described by Lorand (Lorand, L.; Lockridge, O. M.; Campbell, L. K.; Myhrman, R.; Bruner-Lorand, J. Anal.Biochem. 1971, 44, 221-231). After cooling to 37° C., calcium chloride (20 μL, 0.4 M in 50 mM Tris-HCl pH 7.5) and inhibitor solution in 50% glycerol (59 μL) were added. Bovine thrombin (30 NIH units in 118 μL of 50 mM Tris-HCl pH 7.5 containing 20 mM CaCl2) was added and the mixture was incubated at 37° C. for 5 min.
An assay mixture composed of 0.1 M sodium borate, pH 9.0, 0.3% ethylene glycol monomethyl ether, 32 μM monodansylcadaverine, 10 mM CaCl2 and 0.08% dimethyl casein in a final volume of 1.263 mL was prepared in a spectrofluorometric cell and incubated at 37° C. for a few minutes. To assay the residual enzyme activity, 567 μL of the plasma solution was transferred to the assay mixture. The covalent incorporation of monodansylcadaverine into casein was monitored by an increase in fluorescence at λex=360 nm and λem=500 nm, as previously described (Curtis, C. G.; Lorand, L. Methods Enzymol. 1976, 45, 177-191). To determine uninhibited enzyme activity, inhibitor solution was replaced by 50% glycerol. IC50 values (inhibitor concentration resulting in 50% enzyme inactivation) were determined by plotting the percent of remaining enzyme activity against logarithm of inhibitor concentration.

[2] = biological target: T2, Guinea pig liver TGase (Cavia cutleri, UniProt P08587); test: Enzyme selectivity: inactivation of tissue type transglutaminase; assay type: biochemical; conditions: TGAse IC50, Guinea pig liver TGase; 5-min incubation at 37° C. in the absence of substrate
T2 construct: Guinea pig liver TGase; from tissue; host or cells: guinea pig liver
T2 sequence (P08587 2-690): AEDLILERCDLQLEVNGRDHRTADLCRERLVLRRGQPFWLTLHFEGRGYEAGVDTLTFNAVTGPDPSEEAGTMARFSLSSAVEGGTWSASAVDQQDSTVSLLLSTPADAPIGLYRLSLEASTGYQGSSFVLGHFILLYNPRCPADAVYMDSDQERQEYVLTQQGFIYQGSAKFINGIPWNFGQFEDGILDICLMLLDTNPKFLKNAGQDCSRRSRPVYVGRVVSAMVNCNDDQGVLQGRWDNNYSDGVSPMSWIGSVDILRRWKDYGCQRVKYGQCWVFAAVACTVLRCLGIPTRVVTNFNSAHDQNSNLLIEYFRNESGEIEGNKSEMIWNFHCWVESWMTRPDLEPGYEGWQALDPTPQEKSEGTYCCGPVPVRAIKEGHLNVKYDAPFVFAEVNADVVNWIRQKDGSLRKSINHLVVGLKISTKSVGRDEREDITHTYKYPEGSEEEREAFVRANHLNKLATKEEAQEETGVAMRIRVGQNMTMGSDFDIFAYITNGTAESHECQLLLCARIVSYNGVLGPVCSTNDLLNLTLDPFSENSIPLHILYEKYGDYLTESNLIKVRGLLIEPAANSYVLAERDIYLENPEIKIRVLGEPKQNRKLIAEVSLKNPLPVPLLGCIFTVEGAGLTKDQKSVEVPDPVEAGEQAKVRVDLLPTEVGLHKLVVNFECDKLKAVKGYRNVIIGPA
Protocol: Enzyme selectivity . Inactivation of tissue type transglutaminase: Inhibitor solution in DMSO (5 μL) was added to 250 mM Tris-Cl pH 7.5 containing 40 mM CaCl2 and 1 mM EDTA in a final volume of 42 μL. Guinea pig liver TGase (3 μL, 2.5 mg/mL in 5 mM Tris-HCl pH 7.5, 2 mM EDTA) was added and the mixture was incubated for 5 min. at 37° C.
An assay mixture composed of 50 mM Tris-Cl, pH 8.0, 10 mM CaCl2, 1 mM EDTA, 0.1% poly(ethylene glycol) (app. MW=1000) and 20 μM monodansylcadaverine was prepared in a spectrofluorimetric cell in a final volume of 2952 μL. Dimethylcasein (8 μL, 1% in 50 mM sodium phosphate pH 7.5) was added and the mixture was incubated at 37° C. for a few minutes. To assay the residual enzyme activity, 40 μL of the solution containing the enzyme and the inhibitor was transferred to the assay mixture. The covalent incorporation of monodansylcadaverine into casein was monitored by an increase in fluorescence at λexc=360 nm and λem=500 nm, as previously described ((Curtis, C. G.; Lorand, L. Methods Enzymol. 1976, 45, 177-191). To determine uninhibited enzyme activity, DMSO was used in place of inhibitor solution in the above assay. IC50 values were determined by plotting the percent of remaining enzyme activity against logarithm of inhibitor concentration. IC50 is defined here as inhibitor concentration resulting in 50% enzyme inactivation after 5-min incubation of the enzyme with the inhibitor in the absence of the substrate. Second order rate constants for inactivation were determined using method described by Kitz and Wilson (Kitz, R.; Wilson, I. J.Biol.Chem. 1962,237, 3245).

Row | Compound | IC50 [1] | IC50 [2]
1 | O=S(=O)(NCCCCCCNc1nsc2nccn12)c1cccc2ccccc12 [1-naphthyl, N-[6-(imidazo[1,2-d][1,2,4]thiadiazol-3-ylamino)hexyl]naphthalene-1-sulfonamide] | 8.4 µM | 23 µM
2 | O=S(=O)(Cc1ccccc1)NCCCCCCNc1nsc2nccn12 [2 / CH2Ph, N-[6-(imidazo[1,2-d][1,2,4]thiadiazol-3-ylamino)hexyl]-1-phenylmethanesulfonamide] | 19 µM | 27 µM
3 | O=S(=O)(NCCCCCCNc1nsc2nccn12)c1ccc(F)cc1F [2,4-diF-Ph, 2,4-difluoro-N-[6-(imidazo[1,2-d][1,2,4]thiadiazol-3-ylamino)hexyl]benzenesulfonamide] | 6.1 µM | 23 µM
4 | O=S(=O)(NCCCCCCNc1nsc2nccn12)c1ccc(OC(F)(F)F)cc1 [4-OCF3-Ph, N-[6-(imidazo[1,2-d][1,2,4]thiadiazol-3-ylamino)hexyl]-4-trifluoromethoxybenzenesulfonamide] | 31 µM | 31 µM
5 | O=C(O)CN(CCCCCCNS(=O)(=O)c1ccccc1[N+](=O)[O-])c1nsc2nccn12 [H / CH2CO2H / 2-NO2-Ph, N-imidazo[1,2-d][1,2,4]thiadiazol-3-yl-N-(6-{[(2-nitrophenyl)sulfonyl]amino}hexyl)glycine] | – | 17 µM
